Laboratory results from ChEMBL document CHEMBL1629435, “Novel insights into the use of Glowing LNA as nucleic acid detection probes--influence of labeling density and nucleobases” (Bioorg Med Chem Lett, 2010).

Key:
Format in all cases: nucleic-acid assay
Nucleic Acid [1] = assay: Binding affinity to AAA UAU AUA GUG C RNA sequence assessed as melting temperature by thermal denaturation assay
Nucleic Acid [2] = assay: Binding affinity to AAA TAT ATA GTG DNA sequence by fluorescence emission spectrum analysis
Nucleic Acid [3] = assay: Binding affinity to AAA UAU AUA GUG C RNA sequence by fluorescence emission spectrum analysis
Nucleic Acid [4] = assay: Binding affinity to AAA TAT ATA GTG C DNA sequence assessed as melting temperature by thermal denaturation assay
Nucleic Acid [5] = assay: Binding affinity to AAA TAT ATA GTG C DNA sequence assessed as change in melting temperature by thermal denaturation assay
Nucleic Acid [6] = assay: Binding affinity to AAA UAU AUA GUG C RNA sequence assessed as change in melting temperature by thermal denaturation assay
Nucleic Acid [7] = assay: Binding affinity to CGU AGA GUG RNA sequence assessed as melting temperature by thermal denaturation assay
Nucleic Acid [8] = assay: Binding affinity to CGT AAA GTG DNA sequence assessed as change in melting temperature by thermal denaturation assay
Nucleic Acid [9] = assay: Binding affinity to CGT ATA GTG DNA sequence assessed as change in melting temperature by thermal denaturation assay
Nucleic Acid [10] = assay: Binding affinity to CGU AGA GUG RNA sequence assessed as change in melting temperature by thermal denaturation assay
Nucleic Acid [11] = assay: Binding affinity to CGT AGA GTG DNA sequence assessed as change in melting temperature by thermal denaturation assay
Nucleic Acid [12] = assay: Binding affinity to CGT ACA GTG DNA sequence assessed as change in melting temperature by thermal denaturation assay
Nucleic Acid [13] = assay: Binding affinity to CGT AGA GTG DNA sequence assessed as melting temperature by thermal denaturation assay
Nucleic Acid [14] = assay: Binding affinity to CGU AAA GUG RNA sequence assessed as change in melting temperature by thermal denaturation assay
Nucleic Acid [15] = assay: Binding affinity to CGU ACA GUG RNA sequence assessed as change in melting temperature by thermal denaturation assay
Nucleic Acid [16] = assay: Binding affinity to CGU AUA GUG RNA sequence assessed as change in melting temperature by thermal denaturation assay

Row | Structure (SMILES) | Tm (Nucleic Acid [1]) [°C] | fold change (FC) (Nucleic Acid [2]) | fold change (FC) (Nucleic Acid [3]) | Tm (Nucleic Acid [4]) [°C] | ΔTm (Nucleic Acid [5]) [°C] | ΔTm (Nucleic Acid [6]) [°C] | Tm (Nucleic Acid [7]) [°C] | ΔTm (Nucleic Acid [8]) [°C] | ΔTm (Nucleic Acid [9]) [°C] | ΔTm (Nucleic Acid [10]) [°C] | ΔTm (Nucleic Acid [11]) [°C] | ΔTm (Nucleic Acid [12]) [°C] | Tm (Nucleic Acid [13]) [°C] | ΔTm (Nucleic Acid [14]) [°C] | ΔTm (Nucleic Acid [15]) [°C] | ΔTm (Nucleic Acid [16]) [°C]
1 | Cc1cn([C@@H]2O[C@@]3(COP(=O)(O)O[C@H]4[C@@H](O)[C@H](n5cnc6c(N)ncnc65)O[C@@H]4COP(=O)(O)O[C@H]4[C@@H]5[C@H](n6cc(C)c(=O)[nH]c6=O)O[C@@]4(COP(=O)(O)O[C@H]4C[C@H](n6cc(C)c(=O)[nH]c6=O)O[C@@H]4COP(=O)(O)O[C@H]4C[C@H](n6cc(C)c(=O)[nH]c6=O)O[C@@H]4COP(=O)(O)O)CN5C(=O)c4ccc5ccc6cccc7ccc4c5c67)CN(C(=O)c4ccc5ccc6cccc7ccc4c5c67)[C@@H]2[C@@H]3OP(=O)(O)OC[C@H]2O[C@@H](n3cnc4c(N)ncnc43)[C@H](O)[C@@H]2OP(=O)(O)OC[C@H]2O[C@@H](n3cc(C)c(=O)[nH]c3=O)C[C@@H]2OP(=O)(O)OC[C@H]2O[C@@H](n3cnc4c(N)ncnc43)[C@H](O)[C@@H]2OP(=O)(O)OC[C@H]2O[C@@H](n3cc(C)c(=O)[nH]c3=O)C[C@@H]2OP(=O)(O)OC[C@H]2O[C@@H](n3ccc(N)nc3=O)[C@H](O)[C@@H]2OP(=O)(O)OC[C@H]2O[C@@H](n3cnc4c(N)ncnc43)[C@H](O)[C@@H]2OP(=O)(O)OC[C@H]2O[C@@H](n3ccc(N)nc3=O)[C@H](O)[C@@H]2OP(=O)(O)OC[C@H]2O[C@@H](n3cnc4c(=O)[nH]c(N)nc43)[C@H](O)[C@@H]2O)c(=O)[nH]c1=O | 48 | 3.5 | 3.5 | 46.5 | 6.5 | 8 | – | – | – | – | – | – | – | – | – | –
2 | Cc1cn([C@H]2C[C@H](OP(=O)(O)OC[C@H]3O[C@@H](n4ccc(N)nc4=O)[C@H](O)[C@@H]3OP(=O)(O)OC[C@H]3O[C@@H](n4cnc5c(N)ncnc54)[C@H](O)[C@@H]3OP(=O)(O)OC[C@H]3O[C@@H](n4ccc(N)nc4=O)[C@H](O)[C@@H]3O)[C@@H](COP(=O)(O)O[C@H]3[C@@H](O)[C@H](n4ccc(N)nc4=O)O[C@@H]3COP(=O)(O)O[C@H]3C[C@H](n4cc(C)c(=O)[nH]c4=O)O[C@@H]3COP(=O)(O)O[C@H]3[C@@H](O)[C@H](n4cnc5c(N)ncnc54)O[C@@H]3COP(=O)(O)O[C@H]3[C@@H](O)[C@H](n4ccc(N)nc4=O)O[C@@H]3COP(=O)(O)O[C@H]3[C@@H](O)[C@H](n4cnc5c(=O)[nH]c(N)nc54)O[C@@H]3COP(=O)(O)O)O2)c(=O)[nH]c1=O | – | – | – | – | – | – | 36.5 | < -24.5 | -21.5 | – | – | < -24.5 | 34.5 | -23.5 | < -26.5 | < -26.5
3 | Cc1cn([C@@H]2O[C@@]3(COP(=O)(O)O[C@H]4C[C@H](n5cnc6c(N)ncnc65)O[C@@H]4COP(=O)(O)O[C@H]4C[C@H](n5cnc6c(=O)[nH]c(N)nc65)O[C@@H]4COP(=O)(O)O[C@H]4[C@H]5OC[C@]4(COP(=O)(O)O[C@H]4C[C@H](n6cnc7c(=O)[nH]c(N)nc76)O[C@@H]4CO)O[C@H]5n4cc(C)c(=O)[nH]c4=O)CO[C@@H]2[C@@H]3OP(=O)(O)OC[C@H]2O[C@@H](n3cnc4c(N)ncnc43)C[C@@H]2OP(=O)(O)OC[C@@]23CO[C@@H]([C@H](n4cc(C)c(=O)[nH]c4=O)O2)[C@@H]3OP(=O)(O)OC[C@H]2O[C@@H](n3cnc4c(=O)[nH]c(N)nc43)C[C@@H]2OP(=O)(O)OC[C@H]2O[C@@H](n3ccc(N)nc3=O)C[C@@H]2O)c(=O)[nH]c1=O | 46.5 | 3.5 | 3.5 | 45.5 | 6 | 7 | – | – | – | – | – | – | – | – | – | –

The remaining lines, values ahead:

Row | Tm (Nucleic Acid [1]) [°C] | fold change (FC) (Nucleic Acid [2]) | fold change (FC) (Nucleic Acid [3]) | Tm (Nucleic Acid [4]) [°C] | ΔTm (Nucleic Acid [5]) [°C] | ΔTm (Nucleic Acid [6]) [°C] | Tm (Nucleic Acid [7]) [°C] | ΔTm (Nucleic Acid [8]) [°C] | ΔTm (Nucleic Acid [9]) [°C] | ΔTm (Nucleic Acid [10]) [°C] | ΔTm (Nucleic Acid [11]) [°C] | ΔTm (Nucleic Acid [12]) [°C] | Tm (Nucleic Acid [13]) [°C] | ΔTm (Nucleic Acid [14]) [°C] | ΔTm (Nucleic Acid [15]) [°C] | ΔTm (Nucleic Acid [16]) [°C] | Structure (SMILES)
4 | – | 3.6 | 3.6 | – | – | – | 52.5 | -27 | -30 | 8 | 4.5 | -30 | 43 | – | – | – | Cc1cn([C@@H]2O[C@@]3(COP(=O)(O)O[C@H]4C[C@H](n5cc(C)c(=O)[nH]c5=O)O[C@@H]4COP(=O)(O)O[C@H]4[C@@H]5[C@H](n6cc(C)c(N)nc6=O)O[C@@]4(COP(=O)(O)O[C@H]4C[C@H](n6cc(C)c(=O)[nH]c6=O)O[C@@H]4COP(=O)(O)O[C@H]4[C@@H](O)[C@H](n6cnc7c(N)ncnc76)O[C@@H]4COP(=O)(O)O[C@H]4[C@@H](O)[C@H](n6ccc(N)nc6=O)O[C@@H]4COP(=O)(O)O[C@H]4[C@@H](O)[C@H](n6cnc7c(=O)[nH]c(N)nc76)O[C@@H]4COP(=O)(O)O)CN5C(=O)c4ccc5ccc6cccc7ccc4c5c67)CN(C(=O)c4ccc5ccc6cccc7ccc4c5c67)[C@@H]2[C@@H]3OP(=O)(O)OC[C@H]2O[C@@H](n3cnc4c(N)ncnc43)[C@H](O)[C@@H]2OP(=O)(O)OC[C@H]2O[C@@H](n3ccc(N)nc3=O)[C@H](O)[C@@H]2O)c(=O)nc1N
5 | – | 3.6 | 3.6 | – | – | – | 47 | -27 | -32.5 | 5.5 | 5.5 | -30 | 45 | – | – | – | Cc1cn([C@@H]2O[C@@]3(COP(=O)(O)O[C@H]4[C@@H](O)[C@H](n5cnc6c(=O)[nH]c(N)nc65)O[C@@H]4COP(=O)(O)O)CN(C(=O)c4ccc5ccc6cccc7ccc4c5c67)[C@@H]2[C@@H]3OP(=O)(O)OC[C@H]2O[C@@H](n3cnc4c(N)ncnc43)[C@H](O)[C@@H]2OP(=O)(O)OC[C@H]2O[C@@H](n3cc(C)c(=O)[nH]c3=O)C[C@@H]2OP(=O)(O)OC[C@@]23CN(C(=O)c4ccc5ccc6cccc7ccc4c5c67)[C@@H]([C@H](n4cc(C)c(N)nc4=O)O2)[C@@H]3OP(=O)(O)OC[C@H]2O[C@@H](n3cc(C)c(=O)[nH]c3=O)C[C@@H]2OP(=O)(O)OC[C@H]2O[C@@H](n3ccc(N)nc3=O)[C@H](O)[C@@H]2OP(=O)(O)OC[C@H]2O[C@@H](n3cnc4c(N)ncnc43)[C@H](O)[C@@H]2OP(=O)(O)OC[C@H]2O[C@@H](n3ccc(N)nc3=O)[C@H](O)[C@@H]2O)c(=O)nc1N
6 | – | 3.6 | 3.6 | – | – | – | 62 | -27 | -31.5 | 8.5 | 5 | -31 | 49.5 | – | – | – | Cc1cn([C@@H]2O[C@@]3(COP(=O)(O)O[C@H]4[C@@H](O)[C@H](n5cnc6c(=O)[nH]c(N)nc65)O[C@@H]4COP(=O)(O)O)CN(C(=O)c4ccc5ccc6cccc7ccc4c5c67)[C@@H]2[C@@H]3OP(=O)(O)OC[C@H]2O[C@@H](n3cnc4c(N)ncnc43)[C@H](O)[C@@H]2OP(=O)(O)OC[C@H]2O[C@@H](n3cc(C)c(=O)[nH]c3=O)C[C@@H]2OP(=O)(O)OC[C@@]23CN(C(=O)c4ccc5ccc6cccc7ccc4c5c67)[C@@H]([C@H](n4cc(C)c(N)nc4=O)O2)[C@@H]3OP(=O)(O)OC[C@H]2O[C@@H](n3cc(C)c(=O)[nH]c3=O)C[C@@H]2OP(=O)(O)OC[C@@]23CN(C(=O)c4ccc5ccc6cccc7ccc4c5c67)[C@@H]([C@H](n4cc(C)c(N)nc4=O)O2)[C@@H]3OP(=O)(O)OC[C@H]2O[C@@H](n3cnc4c(N)ncnc43)[C@H](O)[C@@H]2OP(=O)(O)OC[C@H]2O[C@@H](n3ccc(N)nc3=O)[C@H](O)[C@@H]2O)c(=O)nc1N
7 | – | – | – | – | – | – | 40 | – | – | 3.5 | 2.5 | – | 37 | – | – | – | Cc1cn([C@@H]2O[C@@]3(COP(=O)(O)O[C@H]4C[C@H](n5cc(C)c(=O)[nH]c5=O)O[C@@H]4COP(=O)(O)O[C@H]4[C@@H](O)[C@H](n5ccc(N)nc5=O)O[C@@H]4COP(=O)(O)O[C@H]4C[C@H](n5cc(C)c(=O)[nH]c5=O)O[C@@H]4COP(=O)(O)O[C@H]4[C@@H](O)[C@H](n5cnc6c(N)ncnc65)O[C@@H]4COP(=O)(O)O[C@H]4[C@@H](O)[C@H](n5ccc(N)nc5=O)O[C@@H]4COP(=O)(O)O[C@H]4[C@@H](O)[C@H](n5cnc6c(=O)[nH]c(N)nc65)O[C@@H]4COP(=O)(O)O)CN(C(=O)c4ccc5ccc6cccc7ccc4c5c67)[C@@H]2[C@@H]3OP(=O)(O)OC[C@H]2O[C@@H](n3cnc4c(N)ncnc43)[C@H](O)[C@@H]2OP(=O)(O)OC[C@H]2O[C@@H](n3ccc(N)nc3=O)[C@H](O)[C@@H]2O)c(=O)nc1N
